Measurements reported in patent publication US8412459B2, “Method for determining the allergic potential of a compound” (Vlaamse Instelling Voor Technologisch Onderzoek (VITO), priority 2006, dated 2013).

What was measured:
CD34-DCs = assay: RT-PCR gene expression in CD34-DCs; classification model (lda + quadratic discriminant) on NINJ, PBEF1, CCR7, CREM, leave-one-compound-out cross validation; settings: LFC of NINJ, exposure 6, 12 and 24 h at concentration of EC20, on average 3 individuals, test compound left out of training
Protocol: Expression of every gene was measured after exposure to each of the 9 different compounds (control solvent). For each compound on average 3 different unrelated individuals were used for exposure. On average sample from 3 different individuals were used per compound. Each exposure consisted of 3 exposure times (6, 12 and 24 hours) and three different concentrations were used for each exposure experiment.
To quantify the separation of the two groups one can use e.g. a linear discriminant analysis (lda). This method determines the direction(s) in space (in our case one direction in a 3D space) in which the discrimination between the groups is maximal. […] Mathematically, this projection is a linear combination of the LFC at 6, 12 and 24 hours; this linear combination of LFC's will be called the feature value. On this feature data per gene an F-test can be performed to assess the significance (p-value) of the separation.
One can now set a threshold and only retain those genes with a p-value below it.
To this end the lda was again used to find the two dimensional subspace in which the separation between the two groups is optimal. The variables on the two axes of this space are now a linear combination of the four feature values of the four genes. We will call the x- and y-variable respectively feature value 1 and 2. Note that these feature values are trained by the data.
For this quadratic model, the decision boundary separating the two groups is a conic section, in this case an ellipse.
First one chooses one of the 9 compounds and removes the corresponding measurements from the dataset.
Next one repeats the lda optimization and the construction of a quadratic discriminant model as described in the previous step.
Next the data of the removed compound are fed into the classification model and used to predict the class to which the compound belongs.

[1] = a priori known, from literature / in vivo tests; cited from earlier work

Compound	class predicted by the classification model in cross validation (sensitizer / non-sensitizer) (CD34-DCs)	known sensitizing classification / strength [1]
CCC[CH2][Sn]([Cl])([CH2]CCC)[CH2]CCC [TBT, Tributyltin chloride]	non-sensitizers	
O=[N+]([O-])c1ccc(Cl)c([N+](=O)[O-])c1 [DNCB, 1-chloro-2,4-dinitrobenzene]		strong sensitizer
C[S+](C)[O-] [DMSO, dimethylsulfoxide]	non-sensitizers	
C=CCc1ccc(O)c(OC)c1 [Eugenol, 2-Methoxy-4-(2-propenyl)phenol]		weak sensitizing capacity
tritonX-100	non-sensitizers	
